Conditions: Liquid, Vibrating tube method

Cc1ccccc1 [toluene]
Conditions | mass density [kg/m3]
283.16 K, 1020 kPa | 876.55
283.16 K, 5010 kPa | 879.36
283.16 K, 10030 kPa | 882.78
283.16 K, 15050 kPa | 886.11
283.16 K, 20080 kPa | 889.23
283.16 K, 25060 kPa | 892.35
283.16 K, 30040 kPa | 895.27
283.16 K, 35080 kPa | 898.24
283.16 K, 40060 kPa | 901.05
283.16 K, 45050 kPa | 903.77
283.16 K, 50010 kPa | 906.43
283.16 K, 55060 kPa | 909.09
283.16 K, 60030 kPa | 911.65
283.16 K, 65050 kPa | 914.15
298.15 K, 1040 kPa | 862.88
298.15 K, 5040 kPa | 865.93
298.15 K, 10030 kPa | 869.6
298.15 K, 15050 kPa | 873.21
298.15 K, 20040 kPa | 876.63
298.15 K, 25050 kPa | 879.93
298.15 K, 30060 kPa | 883.14
298.15 K, 35020 kPa | 886.25
298.15 K, 40040 kPa | 889.26
298.15 K, 45070 kPa | 892.2
298.15 K, 50040 kPa | 895.06
298.15 K, 55040 kPa | 897.86
298.15 K, 60030 kPa | 900.56
298.15 K, 65020 kPa | 903.2
323.15 K, 1050 kPa | 839.46
323.15 K, 5050 kPa | 843.04
323.15 K, 10030 kPa | 847.29
323.15 K, 15010 kPa | 851.38
323.15 K, 20010 kPa | 855.27
323.15 K, 25060 kPa | 859.05
323.15 K, 30080 kPa | 862.69
323.15 K, 35020 kPa | 866.13
323.15 K, 40010 kPa | 869.52
323.15 K, 45060 kPa | 872.84
323.15 K, 50010 kPa | 875.93
323.15 K, 55010 kPa | 879.01
323.15 K, 60050 kPa | 882.04
323.15 K, 65030 kPa | 884.91
348.15 K, 1060 kPa | 815.55
348.15 K, 5070 kPa | 819.75
348.15 K, 10010 kPa | 824.67
348.15 K, 15030 kPa | 829.43
348.15 K, 20030 kPa | 833.88
348.15 K, 25020 kPa | 838.2
348.15 K, 30080 kPa | 842.3
348.15 K, 35050 kPa | 846.21
348.15 K, 40050 kPa | 849.97
348.15 K, 45070 kPa | 853.63
348.15 K, 50020 kPa | 857.09
348.15 K, 55060 kPa | 860.49
348.15 K, 60040 kPa | 863.8
348.15 K, 65070 kPa | 867
373.15 K, 1050 kPa | 790.86
373.15 K, 5020 kPa | 795.87
373.15 K, 10040 kPa | 801.74
373.15 K, 15040 kPa | 807.26
373.15 K, 20030 kPa | 812.38
373.15 K, 25080 kPa | 817.35
373.15 K, 30070 kPa | 821.93
373.15 K, 35040 kPa | 826.36
373.15 K, 40040 kPa | 830.59
373.15 K, 45030 kPa | 834.57
373.15 K, 50040 kPa | 838.5
373.15 K, 55040 kPa | 842.23
373.15 K, 60010 kPa | 845.81
398.15 K, 1070 kPa | 765.25
398.15 K, 5030 kPa | 771.26
398.15 K, 10040 kPa | 778.22
398.15 K, 15080 kPa | 784.74
398.15 K, 20010 kPa | 790.62
398.15 K, 25050 kPa | 796.25
398.15 K, 30040 kPa | 801.49
398.15 K, 35040 kPa | 806.48
398.15 K, 40020 kPa | 811.17
398.15 K, 45040 kPa | 815.71
398.15 K, 50020 kPa | 819.96
398.15 K, 55040 kPa | 824.15
398.15 K, 60020 kPa | 828.11
398.15 K, 65080 kPa | 831.99
423.15 K, 1050 kPa | 738.06
423.15 K, 5030 kPa | 745.45
423.15 K, 10060 kPa | 753.93
423.15 K, 15030 kPa | 761.54
423.15 K, 20000 kPa | 768.41
423.15 K, 25020 kPa | 774.89
423.15 K, 30020 kPa | 780.87
423.15 K, 35060 kPa | 786.56
423.15 K, 40020 kPa | 791.82
423.15 K, 45040 kPa | 796.87
423.15 K, 50040 kPa | 801.63
423.15 K, 55060 kPa | 806.24
423.15 K, 60040 kPa | 810.55
423.15 K, 65050 kPa | 814.77
448.15 K, 1040 kPa | 708.96
448.15 K, 5070 kPa | 718.48
448.15 K, 10040 kPa | 728.71
448.15 K, 15070 kPa | 737.86
448.15 K, 20050 kPa | 745.94
448.15 K, 25050 kPa | 753.39
448.15 K, 30040 kPa | 760.21
448.15 K, 35040 kPa | 766.59
448.15 K, 40020 kPa | 772.48
448.15 K, 45030 kPa | 778.13
448.15 K, 50030 kPa | 783.39
448.15 K, 55060 kPa | 788.44
448.15 K, 60010 kPa | 793.17
448.15 K, 65060 kPa | 797.83
473.15 K, 1030 kPa | 676.8
473.15 K, 5050 kPa | 689.34
473.15 K, 10050 kPa | 702.19
473.15 K, 15060 kPa | 713.2
473.15 K, 20020 kPa | 722.73
473.15 K, 25040 kPa | 731.39
473.15 K, 30010 kPa | 739.18
473.15 K, 35040 kPa | 746.42
473.15 K, 40050 kPa | 753.09
473.15 K, 45060 kPa | 759.38
473.15 K, 50050 kPa | 765.18
473.15 K, 55020 kPa | 770.69
473.15 K, 60030 kPa | 775.95
473.15 K, 65020 kPa | 780.92

Source: the NIST ThermoML archive (doi:10.1016/j.jct.2018.04.019)
